Results on 7 molecules are retold here after patent US20230279061A1, “ISOLATED PEPTIDE FOR A PEPTIDE COACERVATE, AND METHODS OF USE THEREOF” (NANYANG TECHNOLOGICAL UNIVERSITY, priority 2020, published 2023).

Where a SMILES comes first, the peptide text is derived from it. Where no end group is shown, it is not given here. The star is where a group is joined. X1 = O=C(OCCSSCCOC(=O)*)c1ccccc1; X2 = CC(=O)OCCSSCCOC(=O)*

A short description of data set [1]: Optical/fluorescence microscopy of coacervates. The settings on record: near-physiological conditions. Type of data set: physicochemical. How it is done:
Optical and fluorescence microcopy images of HBpep-SP coacervates and fluorescence image of macromolecules-loaded HBpep-SP coacervates were taken using an invert fluorescence microscope (AxioObserver.Z1, Zeiss, Germany). Dynamic light scattering (DLS, ZetaPALS, Brookhaven, USA) system was employed to measure the size of pristine HBpep-SR coacervates and macromolecules-loaded HBpep-SR coacervates. The fresh prepared pristine or macromolecules-loaded coacervates (with or without 0.1 mg/mL of macromolecules, 1 mg/mL of modified peptides) was diluted into PBS with a volume ratio of 1 : 9.0 before the DLS test.

In a further data set the test system is HEK293 cells. The data set can be described thus: MTT cytotoxicity assay. In kind it is cell-based. Particulars: optimal concentration, HEK293 (FIG. 10D). Here is the method:
(§1) The cytotoxicity of the therapeutics-loaded or pristine peptide coacervates was evaluated by using the methylthiazolyldiphenyl-tetrazolium bromide (MTT) assay. Following literature protocols (Chang, H. et al., Nano Letters, 2017, 17, 1678; Sun, Y. et al. Biomat., 2017, 117, 77), 10^4 of HepG2 or HEK293 cells in 100 µL of media (DMEM, 10% FBS, antibiotics) were transferred into 96-wells plates and incubated for 24 hours. Then, the media were replaced with 100 µL of Opti-MEM containing therapeutics-loaded coacervates (various concentration of therapeutics, 1 mg/mL HBpep-SP) or various concentrations of pristine coacervate suspensions. After 4 hours of uptake, the media were removed and the cells were washed by PBS twice before adding 100 µL of media (DMEM, 10% FBS, antibiotics). The cells were incubated for another 20 hours before 10 µL of 5 mg/mL MTT dissolved in PBS was added. The media were removed after 4 hours of incubation with MTT, and the cells were washed by PBS twice. After that, 100 µL of DMSO per well was added for absorbance measurements at 570 nm using a microplate reader (Infinite M200 Pro, Tecan, Switzerland). The relative cell viability was calculated as: […]
(§2) where At, Ab, and Ac represent the absorbance of tested cells, control cells and no cell, respectively.
(In general: Formazan colour is commonly taken as a measure of viable cells.)

The subject of data set [2] is HepG2 cells. The data set can be described thus: MTT cytotoxicity assay. In kind it is cell-based. The settings on record: for cytotoxicity of coacervates with luciferase-encoding mRNA: optimal concentration, HepG2 (FIG. 10C); for cytotoxicity of peptide alone: free peptide, HepG2. Here is the method: as §1, §2
A short description of data set [3]: Turbidity measurement of phase separation (coacervation) at various pH. Type of data set: physicochemical. From the text: The phase separation behavior of HBpep-K and HBpep-SR peptides at various pH was monitored turbidity measurements using a UV-Vis spectrometer (UV-2501PC, Shimadzu, Japan). The absorbance at 600 nm (A600) was used to calculate the relative turbidity (Lim, Z.W. et al., Bioconjugate Chem., 2018, 29, 2176) as: […]

The test system of data set [4] is HepG2 cells. The data set can be described thus: Delivery of proteins and peptides into cells (fluorescence microscopy). In kind it is cell-based. The settings on record: free form, not recruited in coacervates. How it is done:
(§3) For protein delivery into cells, 10^5 of cells were suspended in 1 mL of Dulbecco’s modified Eagle medium (DMEM) supplemented with 10% of fetal bovine serum, 100 units/mL of penicillin and 100 µg/mL of streptomycin, and then transferred into […] culture dishes. After 24 hours of incubation at 37° C. with 5% of CO2, the media was replaced with 900 µL of Opti-MEM. Then, 100 µL of freshly prepared protein-loaded HBpep-SA or HBpep-SP coacervate suspensions (0.1 mg/mL of cargos, 1 mg/mL of modified peptides) were added into the media. After 4 hours of incubation, the media was removed and the cells were washed with PBS twice before adding 1 mL of fresh media (DMEM, 10% FBS, antibiotics). The cells were incubated for another 20 hours and then washed twice at pH 5.0 in phosphate buffer to remove any coacervates that had not entered the cells, before being imaged under the fluorescence microscope (AxioObserver.Z1, Zeiss, Germany).

In data set [5] the test system is HepG2 cells. Kind of data set: X-Gal staining of cells after β-Gal delivery. Type of data set: cell-based. The settings on record: 24 hours. How it is done:
as §3
To further confirm the versatility of the HBpep-SR peptide coacervate delivery system, β-Gal, a very high MW enzyme (MW = 430 kDa) was selected to be recruited into the HBpep-SP peptide coacervate. Intracellular delivery of β-Gal is challenging because of the difficulty in forming complexes with common nanocarriers owing to its high MW (Mitragotri, S. et al., Nat. Reviews Drug Disc., 2014, 13, 655).

`CC(=O)OCCSSCCOC(=O)NCCCC[C@H](NC(=O)[C@H](Cc1ccc(O)cc1)NC(=O)[C@@H]1CCCN1C(=O)CNC(=O)[C@H](Cc1c[nH]cn1)NC(=O)CNC(=O)[C@H](Cc1ccc(O)cc1)NC(=O)[C@@H](NC(=O)CNC(=O)[C@H](Cc1c[nH]cn1)NC(=O)CNC(=O)[C@H](Cc1ccc(O)cc1)NC(=O)[C@@H](NC(=O)CNC(=O)[C@H](Cc1c[nH]cn1)NC(=O)CN)C(C)C)C(C)C)C(=O)NCC(=O)N[C@@H](Cc1c[nH]cn1)C(=O)NCC(=O)N1CCC[C@H]1C(=O)N[C@@H](Cc1ccc(O)cc1)C(=O)NCC(=O)N[C@@H](Cc1c[nH]cn1)C(=O)NCC(=O)N[C@@H](CC(C)C)C(=O)N[C@@H](Cc1ccc(O)cc1)C(=O)N[C@@H](Cc1c[nH]c2ccccc12)C(=O)O` [HBpep-SA] (H-GHGVYGHGVYGHGPYK(X2)GHGPYGHGLYW-OH): the “stability of coacervate microdroplets” value in data set [1] is recorded as “formed stable microdroplets at near-physiological conditions”. For the same molecule, the “cytotoxicity of coacervates with luciferase-encoding mRNA” value with HEK293 cells and in the data set with HepG2 cells [2] was “neither HBpep-SA nor HBpep-SP peptide coacervates with luciferase-encoding mRNA caused cytotoxicity” each time. On to `CC(C)C[C@H](NC(=O)CNC(=O)[C@H](Cc1c[nH]cn1)NC(=O)CNC(=O)[C@H](Cc1ccc(O)cc1)NC(=O)[C@@H]1CCCN1C(=O)CNC(=O)[C@H](Cc1c[nH]cn1)NC(=O)CNC(=O)[C@H](CCCCNC(=O)OCCSSCCOC(=O)c1ccccc1)NC(=O)[C@H](Cc1ccc(O)cc1)NC(=O)[C@@H]1CCCN1C(=O)CNC(=O)[C@H](Cc1c[nH]cn1)NC(=O)CNC(=O)[C@H](Cc1ccc(O)cc1)NC(=O)[C@@H](NC(=O)CNC(=O)[C@H](Cc1c[nH]cn1)NC(=O)CNC(=O)[C@H](Cc1ccc(O)cc1)NC(=O)[C@@H](NC(=O)CNC(=O)[C@H](Cc1c[nH]cn1)NC(=O)CN)C(C)C)C(C)C)C(=O)N[C@@H](Cc1ccc(O)cc1)C(=O)N[C@@H](Cc1c[nH]c2ccccc12)C(=O)O` [HBpep-SP] (H-GHGVYGHGVYGHGPYK(X1)GHGPYGHGLYW-OH), for which the “stability of coacervate microdroplets” value in data set [1] is “formed stable microdroplets at near-physiological conditions”. The “cytotoxicity of coacervates with luciferase-encoding mRNA” value with HEK293 cells and in the data set with HepG2 cells [2] was “neither HBpep-SA nor HBpep-SP peptide coacervates with luciferase-encoding mRNA caused cytotoxicity” each time.

As to “AVPIAQK [Smac, AVPIAQK, reference compound]”, in the data set with HepG2 cells [2], the “cytotoxicity of peptide alone” value is reported as “negligible cytotoxicity”. In the case of “GHGVY GHGVY GHGPY K GHGPY GHGLY W (GHGVYGHGVYGHGPYKGHGPYGHGLYW; HBpep derivative) [HBpep-K, HBpep with a single lysine residue inserted at position 16]”, the “phase state at neutral pH” value in data set [3] (neutral pH) is reported as “reverts to the single phase”. In addition, the “pH at which the peptide phase separates” value in data set [3] (turbidity at various pH) came to 9.0 pH. Consider “KLAKLAK KLAKLAK (KLAKLAKKLAKLAK) [PAD, proapoptotic domain peptide, reference compound]”, for which the “cytotoxicity of peptide alone” value with HepG2 cells [2] is “negligible cytotoxicity”. Turning to “lysozyme: Alexa Fluor 488-labeled lysozyme, cargo protein”, the “internalization / crossing of the cell membrane by free cargo” value in the data set with HepG2 cells [4] is recorded as “neither lysozyme (FIGS. 8E, 8F) nor BSA (FIGS. 8G, 8H) were internalized by HepG2 cells”. As to β-Gal, the “X-Gal staining (β-Gal activity in cells)” value with HepG2 cells [5] was “no blue pigment formation”.
